Experimental data from ChEMBL document CHEMBL4321809, “Structure-Reactivity Relationships on Substrates and Inhibitors of the Lysine Deacylase Sirtuin 2 from Schistosoma mansoni (SmSirt2)” (J Med Chem, 2019).
One block for each molecule: values may come before it. Activity calls are given as the source filed them. The calls are words filed in the database; no cut-off is given here.

Legend:
[1] = molecular target: T1, NAD-dependent protein deacetylase (Schistosoma mansoni, UniProt T1VXA1); experiment: Ratio of Kcat for recombinant Schistosoma mansoni sirtuin 2 (21 to 322 residues) expressed in Escherichia coli BL21(DE3) cells in presence of PSDKmyr to Kcat for recombinant Schistosoma mansoni sirtuin 2 (21 to 322 residues) expressed in Escherichia coli BL21(DE3) cells in presence of PSDKac; format: ADME
T1 sequence (T1VXA1 whole entry): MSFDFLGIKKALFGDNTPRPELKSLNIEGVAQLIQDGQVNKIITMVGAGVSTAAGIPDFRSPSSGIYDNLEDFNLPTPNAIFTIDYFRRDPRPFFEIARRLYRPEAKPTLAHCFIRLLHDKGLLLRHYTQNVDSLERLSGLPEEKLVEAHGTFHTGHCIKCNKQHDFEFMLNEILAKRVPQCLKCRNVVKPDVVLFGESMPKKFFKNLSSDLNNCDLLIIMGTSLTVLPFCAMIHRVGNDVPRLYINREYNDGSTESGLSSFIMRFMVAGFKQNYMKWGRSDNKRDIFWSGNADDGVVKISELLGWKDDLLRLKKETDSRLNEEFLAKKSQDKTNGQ

[2] = molecular target: T1, NAD-dependent protein deacetylase; experiment: Substrate activity at recombinant Schistosoma mansoni sirtuin 2 (21 to 322 residues) expressed in Escherichia coli BL21(DE3) cells assessed as ratio of Kcat to Km up to 30 mins in presence of ZMAL at saturated concentration by homogeneous fluorescence based analysis; format: ADME; conditions: 0.5 h
[3] = molecular target: T2, NAD-dependent protein deacetylase (Schistosoma mansoni) (UniProt T1VXA1); experiment: Inhibition of recombinant Schistosoma mansoni sirtuin 2 (21 to 322 residues) expressed in Escherichia coli BL21(DE3) cells in presence of (Z)-(But)Lys-AMC
T2 sequence (whole entry): T1 sequence (T1VXA1 whole entry)

[4] = molecular target: T2, NAD-dependent protein deacetylase (Schistosoma mansoni); experiment: Inhibition of recombinant Schistosoma mansoni sirtuin 2 (21 to 322 residues) expressed in Escherichia coli BL21(DE3) cells in presence of (Z)-(Myr)Lys-AMC
[5] = molecular target: T2, NAD-dependent protein deacetylase (Schistosoma mansoni); experiment: Inhibition of recombinant Schistosoma mansoni sirtuin 2 (21 to 322 residues) expressed in Escherichia coli BL21(DE3) cells in presence of (Z)-(Dec)Lys-AMC
[6] = molecular target: T2, NAD-dependent protein deacetylase (Schistosoma mansoni); experiment: Inhibition of recombinant Schistosoma mansoni sirtuin 2 (21 to 322 residues) expressed in Escherichia coli BL21(DE3) cells in presence of (Z)-(Lau)Lys-AMC
[7] = molecular target: T1, NAD-dependent protein deacetylase; experiment: Inhibition of recombinant Schistosoma mansoni sirtuin 2 (21 to 322 residues) expressed in Escherichia coli BL21(DE3) cells assessed as inhibition of substrate deacetylation using ZMAL as substrate
[8] = molecular target: T2, NAD-dependent protein deacetylase (Schistosoma mansoni); experiment: Inhibition of recombinant Schistosoma mansoni sirtuin 2 (21 to 322 residues) expressed in Escherichia coli BL21(DE3) cells in presence of (Z)-(Pal)Lys-AMC
[9] = molecular target: T3, NAD-dependent protein deacetylase sirtuin-1 (Homo sapiens, UniProt Q96EB6); experiment: Inhibition of human sirtuin 1 at 500 uM relative to control
T3 sequence (Q96EB6 whole entry): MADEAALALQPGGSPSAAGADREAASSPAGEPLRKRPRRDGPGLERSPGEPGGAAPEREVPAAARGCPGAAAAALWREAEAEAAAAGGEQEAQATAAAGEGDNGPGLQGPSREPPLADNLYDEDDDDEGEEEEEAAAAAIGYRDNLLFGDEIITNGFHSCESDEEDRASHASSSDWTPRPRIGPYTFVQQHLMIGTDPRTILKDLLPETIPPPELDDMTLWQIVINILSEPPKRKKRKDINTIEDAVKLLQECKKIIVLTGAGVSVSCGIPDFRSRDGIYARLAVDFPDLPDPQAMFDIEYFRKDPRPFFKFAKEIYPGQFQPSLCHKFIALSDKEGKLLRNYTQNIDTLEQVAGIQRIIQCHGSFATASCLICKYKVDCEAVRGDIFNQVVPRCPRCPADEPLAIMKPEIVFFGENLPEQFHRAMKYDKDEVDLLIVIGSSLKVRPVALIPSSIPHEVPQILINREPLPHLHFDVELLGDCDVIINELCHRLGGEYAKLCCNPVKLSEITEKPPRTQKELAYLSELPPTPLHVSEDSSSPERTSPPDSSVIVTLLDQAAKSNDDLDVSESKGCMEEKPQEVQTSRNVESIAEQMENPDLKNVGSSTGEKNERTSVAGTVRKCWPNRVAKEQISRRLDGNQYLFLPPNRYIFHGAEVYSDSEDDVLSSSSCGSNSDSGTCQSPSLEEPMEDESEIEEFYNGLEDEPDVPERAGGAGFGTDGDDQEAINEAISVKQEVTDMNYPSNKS

[10] = molecular target: T2, NAD-dependent protein deacetylase (Schistosoma mansoni); experiment: Inhibition of recombinant Schistosoma mansoni sirtuin 2 (21 to 322 residues) expressed in Escherichia coli BL21(DE3) cells in presence of (Z)-(Hex)Lys-AMC
[11] = molecular target: T2, NAD-dependent protein deacetylase (Schistosoma mansoni); experiment: Inhibition of recombinant Schistosoma mansoni sirtuin 2 (21 to 322 residues) expressed in Escherichia coli BL21(DE3) cells in presence of (Z)-(Oct)Lys-AMC
[12] = molecular target: T4, NAD-dependent protein deacetylase sirtuin-2 (Homo sapiens, UniProt Q8IXJ6); experiment: Inhibition of human sirutin 2 assessed as inhibition of susbtrate demyristoylation at 20 uM using (Z)-(Myr)-Lys-AMC as substrate relative to control
T4 sequence (Q8IXJ6 whole entry): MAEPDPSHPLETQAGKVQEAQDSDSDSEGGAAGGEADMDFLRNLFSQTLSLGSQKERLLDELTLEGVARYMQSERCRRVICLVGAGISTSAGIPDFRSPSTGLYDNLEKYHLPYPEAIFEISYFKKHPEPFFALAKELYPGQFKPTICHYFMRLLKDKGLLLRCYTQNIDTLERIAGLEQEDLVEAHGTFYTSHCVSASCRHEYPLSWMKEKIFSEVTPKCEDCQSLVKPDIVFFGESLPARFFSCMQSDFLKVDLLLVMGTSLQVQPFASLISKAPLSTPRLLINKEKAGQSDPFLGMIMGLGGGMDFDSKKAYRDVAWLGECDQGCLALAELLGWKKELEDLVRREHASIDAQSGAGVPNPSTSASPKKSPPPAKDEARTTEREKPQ

[13] = molecular target: T1, NAD-dependent protein deacetylase; experiment: Inhibition of recombinant Schistosoma mansoni sirtuin 2 (21 to 322 residues) expressed in Escherichia coli BL21(DE3) cells assessed as inhibition of substrate demyristoylation using (Z)-(Myr)-Lys-AMC as substrate
[14] = molecular target: T2, NAD-dependent protein deacetylase (Schistosoma mansoni); experiment: Inhibition of recombinant Schistosoma mansoni sirtuin 2 (21 to 322 residues) expressed in Escherichia coli BL21(DE3) cells in presence of ZMAL
[15] = substrate: CCCCCCCCCCCCCC(=O)NCCCC[C@H](NC(=O)[C@H](CC(=O)O)NC(=O)[C@H](CO)NC(=O)[C@@H]1CCCN1C(C)=O)C(=O)N[C@@H](Cc1ccc(O)cc1)C(=O)N[C@H](C(=O)NCC(=O)NCC(=O)N[C@@H](Cc1c[nH]c2ccccc12)C(=O)N[C@@H](Cc1c[nH]c2ccccc12)C(N)=O)[C@@H](C)CC; experiment: Substrate activity at recombinant Schistosoma mansoni sirtuin 2 (21 to 322 residues) expressed in Escherichia coli BL21(DE3) cells assessed as Km up to 30 mins by RP-HPLC analysis; format: ADME
[16] = substrate: CCCCCCCCCCCCCCCC(=O)NCCCC[C@H](NC(=O)OCc1ccccc1)C(=O)Nc1ccc2c(C)cc(=O)oc2c1; experiment: (§1) Substrate activity at recombinant Schistosoma mansoni sirtuin 2 (21 to 322 residues) expressed in Escherichia coli BL21(DE3) cells assessed as Km up to 30 mins by homogeneous fluorescence based analysis; format: ADME
[17] = substrate: CC(=O)N[C@@H](CCCCN)C(=O)Nc1ccc2c(C)cc(=O)oc2c1; experiment: as §1; format: ADME
[18] = substrate: NC(=O)c1ccc[n+]([C@H]2O[C@@H](COP(=O)([O-])OP(=O)(O)OC[C@H]3O[C@@H](n4cnc5c(N)ncnc54)[C@H](O)[C@@H]3O)[C@H](O)[C@@H]2O)c1; experiment: Substrate activity at recombinant Schistosoma mansoni sirtuin 2 (21 to 322 residues) expressed in Escherichia coli BL21(DE3) cells assessed as Km up to 30 mins in presence of PSDKac at saturating concentration by RP-HPLC analysis; format: ADME
[19] = substrate: NC(=O)c1ccc[n+]([C@H]2O[C@@H](COP(=O)([O-])OP(=O)(O)OC[C@H]3O[C@@H](n4cnc5c(N)ncnc54)[C@H](O)[C@@H]3O)[C@H](O)[C@@H]2O)c1; experiment: Substrate activity at recombinant Schistosoma mansoni sirtuin 2 (21 to 322 residues) expressed in Escherichia coli BL21(DE3) cells assessed as Km up to 30 mins in presence of ZMAL at saturated substrate concentration by homogeneous fluorescence based analysis; format: ADME
[20] = substrate: NC(=O)c1ccc[n+]([C@H]2O[C@@H](COP(=O)([O-])OP(=O)(O)OC[C@H]3O[C@@H](n4cnc5c(N)ncnc54)[C@H](O)[C@@H]3O)[C@H](O)[C@@H]2O)c1; experiment: Substrate activity at recombinant Schistosoma mansoni sirtuin 2 (21 to 322 residues) expressed in Escherichia coli BL21(DE3) cells assessed as Km up to 30 mins in presence of ZMML at saturated concentration by homogeneous fluorescence based analysis; format: ADME
[21] = substrate: NC(=O)c1ccc[n+]([C@H]2O[C@@H](COP(=O)([O-])OP(=O)(O)OC[C@H]3O[C@@H](n4cnc5c(N)ncnc54)[C@H](O)[C@@H]3O)[C@H](O)[C@@H]2O)c1; experiment: Substrate activity at recombinant Schistosoma mansoni sirtuin 2 (21 to 322 residues) expressed in Escherichia coli BL21(DE3) cells assessed as Km up to 30 mins in presence of PSDKmyr at saturating concentration by RP-HPLC analysis; format: ADME

Ratio [1]: 3
Kcat/Km [2]: 9.4 ×10¹ /s/M
Molecule: NC(=O)c1ccc[n+]([C@H]2O[C@@H](COP(=O)([O-])OP(=O)(O)OC[C@H]3O[C@@H](n4cnc5c(N)ncnc54)[C@H](O)[C@@H]3O)[C@H](O)[C@@H]2O)c1

Molecule: NC(=O)c1cccnc1 [NIACINAMIDE]
inhibition [3]: Active
inhibition [4]: inactive
inhibition [5]: inactive
inhibition [6]: inactive
IC50 [7]: 23.1 µM
inhibition [8]: inactive
inhibition at 500 µM [9]: 100%
inhibition [10]: Active
inhibition [11]: Active
inhibition at 20 µM [12]: 8.7%
IC50 [13]: 420 µM
inhibition [14]: Active

B1: NAD-dependent protein deacetylase (Schistosoma mansoni) (protein)
chain: T1 sequence (T1VXA1 whole entry)
Km [15]: 15.1 µM
kcat [15]: 0.00563 s⁻¹
kcat/Km [15]: 370 M⁻¹ s⁻¹
Km [16]: 37.5 µM
Km [17]: 59 µM
Km [18]: 33.9 µM
kcat [18]: 0.00172 s⁻¹
kcat/Km [18]: 51 M⁻¹ s⁻¹
Km [19]: 75.8 µM
kcat [19]: 0.000119 s⁻¹
Km [20]: 9.3 µM
Km [21]: 13.3 µM
kcat [21]: 0.00538 s⁻¹
kcat/Km [21]: 410 M⁻¹ s⁻¹
